These results are taken from US20130303576A1, “ENZYME INHIBITORS” (priority 2009, published 2013).

Experiment [1] deals with U937 cells. Description: U937 cell inhibition assay (WST-1 cell viability). To be noted: for times more potent in the monocytic cell line (U937) than the non-monocytic cell line (Hut78): U937 versus Hut78; for potency in the U937 cellular assay compared with the parent compound: versus parent compound A. It is filed as cell-based. As to the method: (§1) Cancer cell lines (U937 and HUT) growing in log phase were harvested and seeded at 1000-2000 cells/well (100 μl final volume) into 96-well tissue culture plates. Following 24 h of growth cells were treated with Compound. Plates were then re-incubated for a further 72-98 h before a WST-1 cell viability assay was conducted according to the suppliers (Roche Applied Science) instructions.
(§2) Data were expressed as a percentage inhibition of the control, measured in the absence of inhibitor, as follows:
(§3) % inhibition=100−[(S^i/S^o)×100]
(§4) where S^i is the signal in the presence of inhibitor and S^o is the signal in the presence of DMSO.
(§5) Dose response curves were generated from 8 concentrations (top final concentration 10 μM, with 3-fold dilutions), using 6 replicates.
(§6) IC50 values were determined by non-linear regression analysis, after fitting the results to the equation for sigmoidal dose response with variable slope (% activity against log concentration of Compound), using Graphpad Prism software.
(§7) IC50 results were allocated to one of 3 ranges as follows: […]
(In general: Formazan colour is commonly taken as a measure of viable cells.)

Experiment [2] concerns HUT78 cells. In words: HUT cell inhibition assay (WST-1 cell viability). To be noted: read-out: Inhibition of proliferation in HUT78 cells (IC50 nM). The experiment is classed as cell-based. As to the method:
as §1, §2, §3, §4, §5, §6, §7

`CC(C)CC(C)(NCc1ccc(CCC(=O)NO)cc1)C(=O)OC1CCCC1` (racemic) [Example 16, Cyclopentyl N-{4-[3-(hydroxyamino)-3-oxopropyl]benzyl}-2-methyl-D,L-leucinate]: in experiment [1], the “times more potent in the monocytic cell line (U937) than the non-monocytic cell line (Hut78)” value was found to be 30 times and the “potency in the U937 cellular assay compared with the parent compound” value is listed as “significantly more potent”. Moreover, the IC50 in experiment [2] worked out at 0.04 nM.

`O=C(CCc1ccc(CNC2(C(=O)OC3CCCC3)CCCC2)cc1)NO` [Example 14, Cyclopentyl 1-({4-[3-hydroxyamino)-3-oxopropyl]benzyl}amino) cyclopentanecarboxylate]: in experiment [1], the “times more potent in the monocytic cell line (U937) than the non-monocytic cell line (Hut78)” value is given as 30 times and the “potency in the U937 cellular assay compared with the parent compound” value is recorded as “significantly more potent”.
